Source: publication PMC7249120, “Hybrid Imaging Agents for Pretargeting Applications Based on Fusarinine C—Proof of Concept” (Molecules, 2020)

Columns and labels:
[1] = test system: TCO-alendronate pre-treated mice (bone); assay: PET/CT and optical imaging in the alendronate-TCO bone pretargeting model; format: in vivo, BALB/c mice; conditions: TCO-alendronate pre-treated mice vs alendronate alone; PET/CT 1 h p.i., OI of excised bones 24 h p.i.
Experimental: For the proof of concept of pretargeting in vivo a model described by Yazdani et al. was applied, based on TCO-modified alendronate for bone targeting. For preparation of TCO–alendronate, briefly, 20 mg sodium alendronate trihydrate (Sigma Aldrich) was dissolved in 400 µL 0.1N sodium-bicarbonate solution pH 8.5. Then 0.6 mL TCO–NHS ester (Click chemistry tools, Scottsdale, AZ, USA), 20 mg/mL in DMSO, were slowly added to the solution and stirred overnight in the dark, followed by freeze drying. As a control the same preparation was prepared, replacing TCO–NHS solution by the same volume of DMSO. For injection in mice the residue was dissolved in water and adjusted to pH 7 (30 mM).
MicroPET/CT images were acquired with an Albira PET/SPECT/CT small animal imaging system (Bruker Biospin Corporation, Woodbridge, CT, USA). […] After reconstruction, acquired data was viewed and analyzed with PMOD software (PMOD Technologies Ltd., Zurich, Switzerland).
Near-infrared in vivo fluorescence imaging was performed with an In-Vivo MS FX PRO small animal imaging system (Bruker Biospin Corporation, Woodbridge, CT, USA) after the PET/CT investigation. […] An appropriate filter set (λex = 710 nm and λem = 790 nm) was used for acquiring the fluorescence of the IRDye800CW-conjugates ex vivo. […] Acquired images were analyzed using Bruker MI SE software (Bruker Biospin Corporation, Woodbridge, CT, USA).

[2] = format: physicochemical; conditions: pH 7.4
Experimental: To determine the hydrophilicity the distribution of the ^68Ga-labeled conjugates between an organic (octanol) and aqueous (PBS) layer was assessed. Aliquots (50 µL) of the ^68Ga-labeled tracers (~5 µM) were diluted in 1 mL of octanol/PBS (1:1, v/v) and the mixture was vortexed at 1400 rpm (MS 3 basic vortexer, IKA, Staufen, Germany) for 15 min at RT. Subsequently the mixture was centrifuged for 2 min at 4500 rpm followed by measuring aliquots (50 µL) of both layers in the gamma counter (Wizard^2 3”, Perkin Elmer, Waltham, MA, USA). LogD was calculated using Microsoft Excel (n = 3, six replicates).

[3] = test system: CD20-expressing Raji cells pre-treated with Rituximab(RTX)–TCO; assay: Cell binding studies on Raji cells pre-treated with RTX-TCO or non-modified RTX; format: cell-based, human; parameters: concentration or dose not given beside the values; conditions: radioligand 30 min, 37 °C
Experimental: CD20-expressing Raji cells ([…] lymphoblast-like B-lymphocyte cells) were obtained from the American Type Culture Collection (ATCC, Manassas, Virginia, USA). The cells were cultured in tissue culture flasks (Cellstar; Greiner Bio-One, Kremsmuenster, Austria) using RPMI-1640 medium with 10% (v/v) fetal bovine serum (FBS) as supplement (Invitrogen Corporation, Lofer, Austria). For cell binding studies 10 × 10^6 cells were washed twice with fresh medium, diluted with PBS to a final concentration of 1 × 10^6 cells per mL and 500 µL of cell suspension was transferred to Eppendorf tubes. Hereafter, 50 µL of RTX–TCO or non-modified RTX as negative control (both 0.5 µM) was added and the cell suspension was maintained at 37 °C under gentle shaking. After 1 h the suspension was centrifuged (2 min, 11 × 10^3 rcf), the supernatant was discarded and the cells were washed twice with 600 µL PBS and finally resuspended with 450 µL PBS. Subsequently 50 µL of the radioligand solution (22 nM) was added and the suspension was incubated for 30 min at 37 °C. After centrifugation and two washing steps with 600 µL PBS, the cells were resuspended in 500 µL PBS and transferred to polypropylene vials for gamma counter measurement followed by calculation of cell-associated activity in comparison to the total activity applied (n = 3, six replicates).

[4] = parameters: species or system BALB/c mice; conditions: mouse, in vivo, iv
Experimental: Biodistribution studies of the FSC-based hybrid imaging agents radiolabeled with Gallium-68 were performed using healthy five-week-old female BALB/c mice (Charles River Laboratories, Sulzfeld, Germany). Animals (n = 3) were injected via lateral tail vein with 1 nmol of conjugate and a total activity of approximately 6 MBq. Mice were sacrificed by cervical dislocation 1 h p.i. followed by collection of the main organs and tissue, subsequent gamma counter measurement and calculation of the percentage of injected activity per gram tissue (% IA/g).

| Structure (SMILES) | Bone uptake in PET/CT and optical imaging [1] | logD [2] | Cell binding (cell-associated activity of total activity applied) [3] [%] | Organ activities compared with SulfoCy5 and IRDye800CW counterparts [4] |
| --- | --- | --- | --- | --- |
| C/C1=C/C(=O)N(O)CCC[C@H](NC(=O)CCOCCOCCOCCOCCOCCC(=O)NCc2ccc(-c3nncnn3)cc2)C(=O)OCC/C(C)=C\C(=O)N(O)CCC[C@H](NC(=O)CCOCCOCCOCCOCCOCCC(=O)NCc2ccc(-c3nncnn3)cc2)C(=O)OCC/C(C)=C\C(=O)N(O)CCC[C@H](NC(=O)CCCCC[N+]2=C(/C=C/C3=C(Oc4ccc(S(=O)(=O)O)cc4)C(=C/C=C4/N(CCCCS(=O)(=O)O)c5ccc(S(=O)(=O)O)cc5C4(C)C)/CCC3)C(C)(C)c3cc(S(=O)(=O)[O-])ccc32)C(=O)OCC1 [IRDye800CW-FSC-(PEG5-Tz)2] | high accumulation in joints and spine | -2.46 ± 0.09 | 4.59 ± 1.45 |  |
| CC(=O)N[C@H]1CCCN(O)C(=O)/C=C(/C)CCOC(=O)[C@@H](NC(=O)CCOCCOCCOCCOCCOCCC(=O)NCc2ccc(-c3nncnn3)cc2)CCCN(O)C(=O)/C=C(/C)CCOC(=O)[C@@H](NC(=O)CCCCC[N+]2=C(/C=C/C3=C(Oc4ccc(S(=O)(=O)O)cc4)C(=C/C=C4/N(CCCCS(=O)(=O)O)c5ccc(S(=O)(=O)O)cc5C4(C)C)/CCC3)C(C)(C)c3cc(S(=O)(=O)[O-])ccc32)CCCN(O)C(=O)/C=C(/C)CCOC1=O [IRDye800CW-MAFC-PEG5-Tz] |  | -2.4 ± 0.05 | 2.88 ± 0.53 |  |
| C/C1=C/C(=O)N(O)CCC[C@H](NC(=O)CCOCCOCCOCCOCCOCCC(=O)NCc2ccc(-c3nncnn3)cc2)C(=O)OCC/C(C)=C\C(=O)N(O)CCC[C@H](NC(=O)CCOCCOCCOCCOCCOCCC(=O)NCc2ccc(-c3nncnn3)cc2)C(=O)OCC/C(C)=C\C(=O)N(O)CCC[C@H](NC(=O)CCCCC[N+]2=C(/C=C/C=C/C=C3/N(C)c4ccc(S(=O)(=O)O)cc4C3(C)C)C(C)(C)c3cc(S(=O)(=O)[O-])ccc32)C(=O)OCC1 [SulfoCy5-FSC-(PEG5-Tz)2] |  | -2.29 ± 0.1 | 5.91 ± 1.62 |  |
| CC(=O)N[C@H]1CCCN(O)C(=O)/C=C(/C)CCOC(=O)[C@@H](NC(=O)CCOCCOCCOCCOCCOCCC(=O)NCc2ccc(-c3nncnn3)cc2)CCCN(O)C(=O)/C=C(/C)CCOC(=O)[C@@H](NC(=O)CCCCC[N+]2=C(/C=C/C=C/C=C3/N(C)c4ccc(S(=O)(=O)O)cc4C3(C)C)C(C)(C)c3cc(S(=O)(=O)[O-])ccc32)CCCN(O)C(=O)/C=C(/C)CCOC1=O [SulfoCy5-MAFC-PEG5-Tz] |  | -2.85 ± 0.08 | 3.09 ± 0.58 |  |
| CC(=O)N[C@H]1CCCN(O)C(=O)/C=C(/C)CCOC(=O)[C@@H](NC(=O)CCOCCOCCOCCOCCOCCC(=O)NCc2ccc(-c3nncnn3)cc2)CCCN(O)C(=O)/C=C(/C)CCOC(=O)[C@@H](NC(=O)CCCCC[N+]2=C(/C=C/C3=CC(=C/C=C4/N(C)c5ccc(S(=O)(=O)O)cc5C4(C)C)/CCC3)C(C)(C)c3cc(S(=O)(=O)[O-])ccc32)CCCN(O)C(=O)/C=C(/C)CCOC1=O [SulfoCy7-MAFC-PEG5-Tz] |  | -1.92 ± 0.05 | 4.12 ± 0.88 | higher activities in all organs |
